Assay results from the supplement of paper PMC10307832.

Key:
Assay in all cases: relative viability (nuclei count vs DMSO), 5 days (fraction); higher = more cells survive
Ponatinib + Vorinostat = compound: Cc1ccc(C(=O)Nc2ccc(CN3CCN(C)CC3)c(C(F)(F)F)c2)cc1C#Cc1cnc2cccnn12 [Ponatinib] + O=C(CCCCCCC(=O)Nc1ccccc1)NO [Vorinostat] (partner 1 µM)
Outline: (§1)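 After 5 days of treatment, lung cancer cells in 1536-well plates were fixed and stained in a single step (final 0.05% Triton X-100, 1% formaldehyde, 1 ug/ml Hoechst) and their nuclei counted on 4× images. Treatment had been applied by pin tool the day after seeding as one drug alone or as a fixed anchor-drug dose with five library-drug doses (not always all listed) in √10 steps. Relative viability is the nuclei count of treated wells divided by that of vehicle wells, and values are medians of duplicate plates.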

Ponatinib + Decitabine = compound: Cc1ccc(C(=O)Nc2ccc(CN3CCN(C)CC3)c(C(F)(F)F)c2)cc1C#Cc1cnc2cccnn12 [Ponatinib] + Nc1ncn([C@H]2C[C@H](O)[C@@H](CO)O2)c(=O)n1 [Decitabine] (partner 2 µM)
Outline: as §1

Ponatinib + Foretinib = compound: Cc1ccc(C(=O)Nc2ccc(CN3CCN(C)CC3)c(C(F)(F)F)c2)cc1C#Cc1cnc2cccnn12 [Ponatinib] + COc1cc2c(Oc3ccc(NC(=O)C4(C(=O)Nc5ccc(F)cc5)CC4)cc3F)ccnc2cc1OCCCN1CCOCC1 [Foretinib] (partner 0.25 µM)
Outline: as §1

Pazopanib + Navitoclax = compound: Cc1ccc(Nc2nccc(N(C)c3ccc4c(C)n(C)nc4c3)n2)cc1S(N)(=O)=O [Pazopanib] + CC1(C)CCC(c2ccc(Cl)cc2)=C(CN2CCN(c3ccc(C(=O)NS(=O)(=O)c4ccc(N[C@H](CCN5CCOCC5)CSc5ccccc5)c(S(=O)(=O)C(F)(F)F)c4)cc3)CC2)C1 [Navitoclax] (partner 0.5 µM)
Outline: as §1

NCI-H23
relative viability (Ponatinib + Vorinostat; first compound 0.002 µM): 0.504 | relative viability (Ponatinib + Vorinostat; first compound 0.006325 µM): 0.588 | relative viability (Ponatinib + Vorinostat; first compound 0.06325 µM): 0.607 | relative viability (Ponatinib + Vorinostat; first compound 0.2 µM): 0.634 | relative viability (Ponatinib + Decitabine; first compound 0.002 µM): 0.286 | relative viability (Ponatinib + Decitabine; first compound 0.006325 µM): 0.313 | relative viability (Ponatinib + Decitabine; first compound 0.06325 µM): 0.332 | relative viability (Ponatinib + Decitabine; first compound 0.2 µM): 0.297 | relative viability (Ponatinib + Foretinib; first compound 0.002 µM): 0.949 | relative viability (Ponatinib + Foretinib; first compound 0.006325 µM): 1.04 | relative viability (Ponatinib + Foretinib; first compound 0.06325 µM): 1.04 | relative viability (Ponatinib + Foretinib; first compound 0.2 µM): 0.832 | relative viability (Pazopanib + Navitoclax; first compound 0.01 µM): 0.899 | relative viability (Pazopanib + Navitoclax; first compound 0.03162 µM): 0.843 | relative viability (Pazopanib + Navitoclax; first compound 0.1 µM): 1.16 | relative viability (Pazopanib + Navitoclax; first compound 0.3162 µM): 1.02 | relative viability (Pazopanib + Navitoclax; first compound 1 µM): 1.06

NCI-H322M
relative viability (Ponatinib + Vorinostat; first compound 0.002 µM): 0.882 | relative viability (Ponatinib + Vorinostat; first compound 0.006325 µM): 0.823 | relative viability (Ponatinib + Vorinostat; first compound 0.06325 µM): 0.833 | relative viability (Ponatinib + Vorinostat; first compound 0.2 µM): 0.741 | relative viability (Ponatinib + Decitabine; first compound 0.002 µM): 0.681 | relative viability (Ponatinib + Decitabine; first compound 0.006325 µM): 0.688 | relative viability (Ponatinib + Decitabine; first compound 0.06325 µM): 0.736 | relative viability (Ponatinib + Decitabine; first compound 0.2 µM): 0.629 | relative viability (Ponatinib + Foretinib; first compound 0.002 µM): 0.956 | relative viability (Ponatinib + Foretinib; first compound 0.006325 µM): 0.976 | relative viability (Ponatinib + Foretinib; first compound 0.06325 µM): 1.02 | relative viability (Ponatinib + Foretinib; first compound 0.2 µM): 0.814 | relative viability (Pazopanib + Navitoclax; first compound 0.01 µM): 1.03 | relative viability (Pazopanib + Navitoclax; first compound 0.03162 µM): 1.19 | relative viability (Pazopanib + Navitoclax; first compound 0.1 µM): 1.27 | relative viability (Pazopanib + Navitoclax; first compound 0.3162 µM): 1.36 | relative viability (Pazopanib + Navitoclax; first compound 1 µM): 1.24

NCI-H358
relative viability (Ponatinib + Vorinostat; first compound 0.002 µM): 0.644 | relative viability (Ponatinib + Vorinostat; first compound 0.006325 µM): 0.634 | relative viability (Ponatinib + Vorinostat; first compound 0.06325 µM): 0.669 | relative viability (Ponatinib + Vorinostat; first compound 0.2 µM): 0.551 | relative viability (Ponatinib + Decitabine; first compound 0.002 µM): 0.193 | relative viability (Ponatinib + Decitabine; first compound 0.006325 µM): 0.326 | relative viability (Ponatinib + Decitabine; first compound 0.06325 µM): 0.221 | relative viability (Ponatinib + Decitabine; first compound 0.2 µM): 0.204 | relative viability (Ponatinib + Foretinib; first compound 0.002 µM): 0.734 | relative viability (Ponatinib + Foretinib; first compound 0.006325 µM): 0.731 | relative viability (Ponatinib + Foretinib; first compound 0.06325 µM): 1.02 | relative viability (Ponatinib + Foretinib; first compound 0.2 µM): 0.784

NCI-H522
relative viability (Ponatinib + Vorinostat; first compound 0.002 µM): 0.853 | relative viability (Ponatinib + Vorinostat; first compound 0.006325 µM): 0.964 | relative viability (Ponatinib + Vorinostat; first compound 0.06325 µM): 0.95 | relative viability (Ponatinib + Vorinostat; first compound 0.2 µM): 0.928 | relative viability (Ponatinib + Decitabine; first compound 0.002 µM): 0.615 | relative viability (Ponatinib + Decitabine; first compound 0.006325 µM): 0.64 | relative viability (Ponatinib + Decitabine; first compound 0.06325 µM): 0.615 | relative viability (Ponatinib + Decitabine; first compound 0.2 µM): 0.609

NCI-H650
relative viability (Ponatinib + Vorinostat; first compound 0.002 µM): 0.3 | relative viability (Ponatinib + Vorinostat; first compound 0.006325 µM): 0.441 | relative viability (Ponatinib + Vorinostat; first compound 0.06325 µM): 0.444 | relative viability (Ponatinib + Vorinostat; first compound 0.2 µM): 0.447 | relative viability (Ponatinib + Decitabine; first compound 0.002 µM): 0.296 | relative viability (Ponatinib + Decitabine; first compound 0.006325 µM): 0.319 | relative viability (Ponatinib + Decitabine; first compound 0.06325 µM): 0.341 | relative viability (Ponatinib + Decitabine; first compound 0.2 µM): 0.299 | relative viability (Ponatinib + Foretinib; first compound 0.002 µM): 0.968 | relative viability (Ponatinib + Foretinib; first compound 0.006325 µM): 1.03 | relative viability (Ponatinib + Foretinib; first compound 0.06325 µM): 1.02 | relative viability (Ponatinib + Foretinib; first compound 0.2 µM): 0.884

NCI-H661
relative viability (Ponatinib + Vorinostat; first compound 0.002 µM): 0.735 | relative viability (Ponatinib + Vorinostat; first compound 0.006325 µM): 0.775 | relative viability (Ponatinib + Vorinostat; first compound 0.06325 µM): 0.831 | relative viability (Ponatinib + Vorinostat; first compound 0.2 µM): 0.819 | relative viability (Ponatinib + Decitabine; first compound 0.002 µM): 0.524 | relative viability (Ponatinib + Decitabine; first compound 0.006325 µM): 0.537 | relative viability (Ponatinib + Decitabine; first compound 0.06325 µM): 0.562 | relative viability (Ponatinib + Decitabine; first compound 0.2 µM): 0.515 | relative viability (Ponatinib + Foretinib; first compound 0.002 µM): 1.03 | relative viability (Ponatinib + Foretinib; first compound 0.006325 µM): 0.98 | relative viability (Ponatinib + Foretinib; first compound 0.06325 µM): 0.993 | relative viability (Ponatinib + Foretinib; first compound 0.2 µM): 0.998

NCI-H1299
relative viability (Ponatinib + Foretinib; first compound 0.002 µM): 1.07 | relative viability (Ponatinib + Foretinib; first compound 0.006325 µM): 1.09 | relative viability (Ponatinib + Foretinib; first compound 0.06325 µM): 1.15 | relative viability (Ponatinib + Foretinib; first compound 0.2 µM): 1.07 | relative viability (Pazopanib + Navitoclax; first compound 0.01 µM): 1.04 | relative viability (Pazopanib + Navitoclax; first compound 0.03162 µM): 1.03 | relative viability (Pazopanib + Navitoclax; first compound 0.1 µM): 1.03 | relative viability (Pazopanib + Navitoclax; first compound 0.3162 µM): 1.1 | relative viability (Pazopanib + Navitoclax; first compound 1 µM): 1.02

NCI-H1563
relative viability (Ponatinib + Foretinib; first compound 0.002 µM): 0.881 | relative viability (Ponatinib + Foretinib; first compound 0.006325 µM): 0.863 | relative viability (Ponatinib + Foretinib; first compound 0.06325 µM): 0.955 | relative viability (Ponatinib + Foretinib; first compound 0.2 µM): 0.854

NCI-H1648
relative viability (Ponatinib + Vorinostat; first compound 0.002 µM): 0.381 | relative viability (Ponatinib + Vorinostat; first compound 0.006325 µM): 0.335 | relative viability (Ponatinib + Vorinostat; first compound 0.06325 µM): 0.455 | relative viability (Ponatinib + Vorinostat; first compound 0.2 µM): 0.462 | relative viability (Ponatinib + Decitabine; first compound 0.002 µM): 0.464 | relative viability (Ponatinib + Decitabine; first compound 0.006325 µM): 0.615 | relative viability (Ponatinib + Decitabine; first compound 0.06325 µM): 0.429 | relative viability (Ponatinib + Decitabine; first compound 0.2 µM): 0.358

NCI-H1703
relative viability (Ponatinib + Foretinib; first compound 0.002 µM): 0.275 | relative viability (Ponatinib + Foretinib; first compound 0.006325 µM): 0.337 | relative viability (Ponatinib + Foretinib; first compound 0.06325 µM): 0.273 | relative viability (Ponatinib + Foretinib; first compound 0.2 µM): 0.257 | relative viability (Pazopanib + Navitoclax; first compound 0.01 µM): 0.865 | relative viability (Pazopanib + Navitoclax; first compound 0.03162 µM): 0.925 | relative viability (Pazopanib + Navitoclax; first compound 0.1 µM): 0.344 | relative viability (Pazopanib + Navitoclax; first compound 0.3162 µM): 0.256 | relative viability (Pazopanib + Navitoclax; first compound 1 µM): 0.287

NCI-H1792
relative viability (Ponatinib + Decitabine; first compound 0.002 µM): 0.476 | relative viability (Ponatinib + Decitabine; first compound 0.006325 µM): 0.488 | relative viability (Ponatinib + Decitabine; first compound 0.06325 µM): 0.516 | relative viability (Ponatinib + Decitabine; first compound 0.2 µM): 0.495 | relative viability (Pazopanib + Navitoclax; first compound 0.03162 µM): 0.62 | relative viability (Pazopanib + Navitoclax; first compound 0.1 µM): 0.58 | relative viability (Pazopanib + Navitoclax; first compound 0.3162 µM): 0.627 | relative viability (Pazopanib + Navitoclax; first compound 1 µM): 0.569

NCI-H2228
relative viability (Ponatinib + Vorinostat; first compound 0.002 µM): 0.658 | relative viability (Ponatinib + Vorinostat; first compound 0.006325 µM): 0.588 | relative viability (Ponatinib + Vorinostat; first compound 0.06325 µM): 0.7 | relative viability (Ponatinib + Vorinostat; first compound 0.2 µM): 0.575 | relative viability (Ponatinib + Foretinib; first compound 0.002 µM): 0.656 | relative viability (Ponatinib + Foretinib; first compound 0.006325 µM): 0.83 | relative viability (Ponatinib + Foretinib; first compound 0.06325 µM): 0.907 | relative viability (Ponatinib + Foretinib; first compound 0.2 µM): 0.791 | relative viability (Pazopanib + Navitoclax; first compound 0.01 µM): 0.847 | relative viability (Pazopanib + Navitoclax; first compound 0.03162 µM): 1.1 | relative viability (Pazopanib + Navitoclax; first compound 0.1 µM): 1.03 | relative viability (Pazopanib + Navitoclax; first compound 0.3162 µM): 0.98 | relative viability (Pazopanib + Navitoclax; first compound 1 µM): 0.913

NCI-H2342
relative viability (Ponatinib + Vorinostat; first compound 0.002 µM): 0.676 | relative viability (Ponatinib + Vorinostat; first compound 0.006325 µM): 0.779 | relative viability (Ponatinib + Vorinostat; first compound 0.06325 µM): 0.886 | relative viability (Ponatinib + Vorinostat; first compound 0.2 µM): 0.731 | relative viability (Ponatinib + Decitabine; first compound 0.002 µM): 0.74 | relative viability (Ponatinib + Decitabine; first compound 0.006325 µM): 0.703 | relative viability (Ponatinib + Decitabine; first compound 0.06325 µM): 0.837 | relative viability (Ponatinib + Decitabine; first compound 0.2 µM): 0.77 | relative viability (Ponatinib + Foretinib; first compound 0.002 µM): 1.04 | relative viability (Ponatinib + Foretinib; first compound 0.006325 µM): 1.04 | relative viability (Ponatinib + Foretinib; first compound 0.06325 µM): 1.01 | relative viability (Ponatinib + Foretinib; first compound 0.2 µM): 0.972

SW 900
relative viability (Ponatinib + Vorinostat; first compound 0.002 µM): 0.382 | relative viability (Ponatinib + Vorinostat; first compound 0.006325 µM): 0.516 | relative viability (Ponatinib + Vorinostat; first compound 0.06325 µM): 0.591 | relative viability (Ponatinib + Vorinostat; first compound 0.2 µM): 0.525 | relative viability (Ponatinib + Decitabine; first compound 0.002 µM): 0.447 | relative viability (Ponatinib + Decitabine; first compound 0.006325 µM): 0.43 | relative viability (Ponatinib + Decitabine; first compound 0.06325 µM): 0.518 | relative viability (Ponatinib + Decitabine; first compound 0.2 µM): 0.481 | relative viability (Ponatinib + Foretinib; first compound 0.002 µM): 0.893 | relative viability (Ponatinib + Foretinib; first compound 0.006325 µM): 0.998 | relative viability (Ponatinib + Foretinib; first compound 0.06325 µM): 1.12 | relative viability (Ponatinib + Foretinib; first compound 0.2 µM): 0.593
